Measurements: patent publication US20200071310A1, “N-ARYL PYRAZOLES AS NRF2 REGULATORS” (GLAXOSMITHKLINE INTELLECTUAL PROPERTY DEVELOPMENT LIMITED, priority 2016, published 2020)
pEC50: −log10 of the molar value. Counter-ions that a name gives are not always drawn.

Target: T1, Keap1 (321-609) Kelch domain / TAMRA-labeled NRF2 peptide (ETGE motif) (Homo sapiens, UniProt Q14145)
T1 construct: the Kelch domain (321-609) of Keap1 is used
Test: NRF2-Keap1 FP Assay
Type: binding
Details: Keap1 (321-609) 20 nM, Tamra labeled peptide 8 nM
Source text: One model for the NRF2-Keap1 interaction is through two binding sites in the Neh2 domain on NRF2. The two sites are referred to as the DLG binding motif (latch domain, uM affinity) and the ETGE binding motif (hinge domain, nM affinity). The Keap1 protein consists of an N-terminal region (NTR), a broad complex, tramtrack, and brick a' brac domain (BTB), an intervening region (IVR), a double glycine repeat domain (DGR or Kelch), and a C-terminal region. The DLG and ETGE motifs of NRF2's Neh2 domain bind to the Kelch domain of Keap1 at different affinities. In the Keap1 Kelch fluorescence polarization (FP) assay, a TAMRA-labeled 16mer peptide (AFFAQLQLDEETGEFL) containing the ETGE motif of NRF2 and the Kelch domain (321-609) of Keap1 is used. The assay determines if a compound interferes with the binding between Keap1 […] and the TAMRA-labeled peptide. Binding of TAMRA-labeled NRF2 peptide to Keap1 (321-609) results in a high FP signal. If a compound interferes with the binding between the peptide and the protein, it will cause the assay signal to decrease. Thus, assay signal is inversely proportional to binding inhibition.
100 nl of 100× compound dose response curves (serial 3-fold dilutions) in DMSO were stamped using an Echo liquid handling system (Labcyte) into 384-well low volume black assay plates (Greiner, #784076), with DMSO in columns 6 and 18. The top concentration of compound was located in columns 1 and 13. Keap1 (321-609) was diluted to 40 nM (2×) in 1× assay buffer (50 mM Tris, pH 8.0, 100 mM NaCl, 5 mM MgCl2, 1 mM DTT, 2 mM CHAPS, and 0.005% BSA) and 5 ul was added using a Multidrop Combi (Thermo Electron Corporation) equipped with a metal tip dispenser to all wells of the compound plate, except column 18. Column 18 received only 5 ul of assay buffer. Immediately, 5 uL of 16 nM (2×) of Tamra labeled peptide (AFFAQLQLDEETGEFL, 21st Century Biochemicals) was added to all wells of the plate. The plates were spun at 500 rpm for 1 min, incubated for 1 hr at room temperature, and read on an Analyst GT (Molecular Devices) equipped with excitation (530/25 nm) and emission (580/10 nm) filters designed for Tamra probes. A 561 nm dichroic mirror was also used in the Analyst. The final assay concentrations of Keap1l (321-609) and Tamra labeled peptide were 20 nM and 8 nM, respectively. Fluorescence measurements, represented as mP, were used in the transformation of the data. Compound activity was calculated based on percent inhibition, normalized against controls in the assay (Control 1 contains the Tamra peptide and Keap1 (321-609) together (0% response) and control 2 contains the Tamra peptide alone (100% response)). Data analysis was handled using the software package Abase XE (Surrey, United Kingdom. The % inhibition values were calculated by the equation:
100−(100*((compound response−average control 2)/(average control 1−average control2))).
For calculation of pIC50s, Abase XE used a four parameter equation.
IC50s<1 nM (+++++), IC50s 1 nM-10 nM (++++), IC50s 10-100 nM (+++), IC50s 100 nM-1 μM (++), IC50s 1-10 μM (+), IC50s>10 μM (−), or were not determined (ND).

T1 sequence (Q14145 321-609): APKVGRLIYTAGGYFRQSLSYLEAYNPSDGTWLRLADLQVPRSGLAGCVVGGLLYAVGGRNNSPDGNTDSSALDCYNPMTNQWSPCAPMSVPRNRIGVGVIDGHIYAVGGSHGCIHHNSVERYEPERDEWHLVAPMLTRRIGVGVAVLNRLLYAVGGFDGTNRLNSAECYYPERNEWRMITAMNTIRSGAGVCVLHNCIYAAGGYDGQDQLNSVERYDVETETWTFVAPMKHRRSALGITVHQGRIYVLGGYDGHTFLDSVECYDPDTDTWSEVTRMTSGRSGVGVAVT

| Structure (SMILES) | pEC50 |
| --- | --- |
| Cn1cc([C@@H]2C[C@H]2c2c(C(=O)O)cnn2-c2cccc(CN3Cc4ccccc4CC(C)(C)C3)c2)nn1 (racemic) [Example 7] | 7.00 to 8.00 |
| CC[C@@H]1CN(Cc2cccc(-n3ncc(C(=O)O)c3[C@@H]3C[C@H]3c3cn(C)nn3)c2)Cc2ccccc2O1 (racemic) [Example 14] | 6.00 to 7.00 |
| Cn1cc([C@@H]2C[C@H]2c2c(C(=O)O)cnn2-c2cccc(CN3Cc4ccccc4OC(C)(C)C3)c2)nn1 (racemic) [Example 8] | 7.00 to 8.00 |
| C[C@H]1Cc2ccc(C(F)(F)F)cc2S(=O)(=O)N([C@H]2CCc3c2cccc3-n2ncc(C(=O)O)c2[C@@H]2C[C@H]2c2cn(C)nn2)C1 [Example 26a, 1-((S)-1-((S)-4-Methyl-1,1-dioxido-8-(trifluoromethyl)-4,5-dihydrobenzo[f][1,2]thiazepin-2(3H)-yl)-2,3-dihydro-1H-inden-4-yl)-5-((1R,2R)-2-(1-methyl-1H-1,2,3-triazol-4-yl)cyclopropyl)-1H-pyrazole-4-carboxylic acid] | 7.00 to 8.00 |
| Cn1cc([C@@H]2C[C@H]2c2c(C(=O)O)cnn2-c2cccc(Cn3ccnc3CN3CCCCC3)c2)nn1 (racemic) [Example 24] | 7.00 to 8.00 |
| CCCCCCN(Cc1cccc(-n2ncc(C(=O)O)c2[C@@H]2C[C@H]2c2cn(C)nn2)c1)S(=O)(=O)c1ccccc1Oc1ccccc1 (racemic) [Example 49, 1-(3-((N-hexyl-2-phenoxyphenylsulfonamido)methyl)phenyl)-5-((trans)-2-(1-methyl-1H-1,2,3-triazol-4-yl)cyclopropyl)-1H-pyrazole-4-carboxylic acid] | 6.00 to 7.00 |
| COc1ccc(Br)cc1S(=O)(=O)N(C)Cc1cccc(-n2ncc(C(=O)O)c2[C@@H]2C[C@H]2c2cn(C)nn2)c1 (racemic) [Example 43, 1-(3-((5-bromo-2-methoxy-N-methylphenylsulfonamido)methyl)phenyl)-5-((trans)-2-(1-methyl-1H-1,2,3-triazol-4-yl)cyclopropyl)-1H-pyrazole-4-carboxylic acid] | 6.00 to 7.00 |
| C[C@@H]1Cc2cc(C(F)(F)F)ccc2S(=O)(=O)N(Cc2cccc(-n3ncc(C(=O)O)c3[C@@H]3C[C@H]3c3cnn(C)c3)c2)C1 [Example 33, 1-(3-(((R)-4-methyl-1,1-dioxido-7-(trifluoromethyl)-4,5-dihydro-benzo[f][1,2]thiazepin-2(3H)-yl)methyl)phenyl)-5-(trans-2-(1-methyl-1H-pyrazol-4-yl)cyclopropyl)-1H-pyrazole-4-carboxylic acid] | 5.00 to 6.00 |
| COc1ccccc1S(=O)(=O)N(C)Cc1cccc(-n2ncc(C(=O)O)c2[C@@H]2C[C@H]2c2cn(C)nn2)c1 (racemic) [Example 47, 1-(3-((2-methoxy-N-methylphenylsulfonamido)methyl)phenyl)-5-((trans)-2-(1-methyl-1H-1,2,3-triazol-4-yl)cyclopropyl)-1H-pyrazole-4-carboxylic acid] | 6.00 to 7.00 |
| CC[C@@H]1CN(Cc2cccc(-n3ncc(C(=O)O)c3[C@@H]3C[C@H]3c3cn(CC(F)(F)F)nn3)c2)S(=O)(=O)c2ccccc2O1 [Example 29] | 8.00 to 9.00 |
| CN(Cc1cccc(-n2ncc(C(=O)O)c2[C@@H]2C[C@H]2c2cn(C)nn2)c1)S(=O)(=O)c1ccccc1 (racemic) [Example 48, 5-((trans)-2-(1-methyl-1H-1,2,3-triazol-4-yl)cyclopropyl)-1-(3-((N-methylphenylsulfonamido)methyl)phenyl)-1H-pyrazole-4-carboxylic acid] | 6.00 to 7.00 |
| CCOc1ccc(Br)cc1CN(C)Cc1cccc(-n2ncc(C(=O)O)c2[C@@H]2C[C@H]2c2cn(C)nn2)c1 (racemic) [Example 54, 1-(3-(((5-bromo-2-ethoxybenzyl)(methyl)amino)methyl)phenyl)-5-((trans)-2-(1-methyl-1H-1,2,3-triazol-4-yl)cyclopropyl)-1H-pyrazole-4-carboxylic acid trifluoroacetate] | 6.00 to 7.00 |
| CCC1c2ccccc2OC(C)(C)CN1Cc1cccc(-n2ncc(C(=O)O)c2[C@@H]2C[C@H]2c2cn(C)nn2)c1 (some centres unmarked) [Example 12] | 5.00 to 6.00 |
| Cc1cc([C@@H]2C[C@H]2c2c(C(=O)O)cnn2-c2cccc(CN3C[C@@H](C)Cc4cc(C(F)(F)F)ccc4S3(=O)=O)c2)on1 (racemic) [Example 57, 1-(3-(((S)-4-Methyl-1,1-dioxido-7-(trifluoromethyl)-4,5-dihydrobenzo[f][1,2]thiazepin-2(3H)-yl)methyl)phenyl)-5-(trans-2-(3-methylisoxazol-5-yl)cyclopropyl)-1H-pyrazole-4-carboxylic acid] | 6.00 to 7.00 |
| CCCCCCN(Cc1cccc(-n2ncc(C(=O)O)c2[C@@H]2C[C@H]2c2cnn(C)c2)c1)S(=O)(=O)c1ccccc1C (racemic) [Example 56] | 5.00 to 6.00 |
| CCCN(Cc1cccc(-n2ncc(C(=O)O)c2[C@@H]2C[C@H]2c2cn(C)nn2)c1)S(=O)(=O)c1ccccc1C (racemic) [Example 50, 5-((trans)-2-(1-methyl-1H-1,2,3-triazol-4-yl)cyclopropyl)-1-(3-((2-methyl-N-propylphenylsulfonamido)methyl)phenyl)-1H-pyrazole-4-carboxylic acid] | 6.00 to 7.00 |

Further lines, results first:

| pEC50 | Structure (SMILES) |
| --- | --- |
| 8.00 to 9.00 | CC[C@@H]1CN(Cc2cccc(-n3ncc(C(=O)O)c3[C@@H]3C[C@H]3c3cn(C)nn3)c2)S(=O)(=O)c2ccccc2O1 [Example 3] |
| 8.00 to 9.00 | Cn1cc([C@@H]2C[C@H]2c2c(C(=O)O)cnn2-c2cccc(CN3CC(C)(C)Oc4ccc(F)cc4S3(=O)=O)c2)nn1 (racemic) [Example 5] |
| > 9.00 | CC[C@H]1Cc2ccc(Br)cc2S(=O)(=O)N(Cc2cccc(-n3ncc(C(=O)O)c3[C@@H]3C[C@H]3c3cn(C)nn3)c2)C1 [Example 22, 1-(3-(((S)-8-bromo-4-ethyl-1,1-dioxido-4,5-dihydrobenzo[f][1,2]thiazepin-2(3H)-yl)methyl)phenyl)-5-((1R,2R)-2-(1-methyl-1H-1,2,3-triazol-4-yl)cyclopropyl)-1H-pyrazole-4-carboxylic acid] |
| 8.00 to 9.00 | C[C@@H]1Cc2cc(C(F)(F)F)ccc2S(=O)(=O)N(Cc2cccc(-n3ncc(C(=O)O)c3[C@@H]3C[C@H]3c3cn(C)nn3)c2)C1 (racemic) [Example 18, 1-(3-((4-methyl-1,1-dioxido-7-(trifluoromethyl)-4,5-dihydro-benzo[f][1,2]thiazepin-2(3H)-yl)methyl)phenyl)-5-((trans)-2-(1-methyl-1H-1,2,3-triazol-4-yl)cyclopropyl)-1H-pyrazole-4-carboxylic acid] |
| 8.00 to 9.00 | Cn1cc([C@@H]2C[C@H]2c2c(C(=O)O)cnn2-c2cccc(CN3Cc4cc(Br)ccc4OC(C)(C)C3)c2)nn1 (racemic) [Example 13] |
| 8.00 to 9.00 | CC(c1cccc(-n2ncc(C(=O)O)c2[C@@H]2C[C@H]2c2cn(C)nn2)c1)N1C[C@@H](C)Cc2ccc(C(F)(F)F)cc2S1(=O)=O (single isomer, unassigned) [Example 6, 1-(3-((R or S)-1-((S)-4-Methyl-1,1-dioxido-8-(trifluoromethyl)-4,5-dihydrobenzo[f][1,2]thiazepin-2(3H)-yl)ethyl)phenyl)-5-((1R,2R)-2-(1-methyl-1H-1,2,3-triazol-4-yl)cyclopropyl)-1H-pyrazole-4-carboxylic acid] |
| > 9.00 | CC[C@H]1Cc2ccc(C(F)(F)F)cc2S(=O)(=O)N(Cc2cccc(-n3ncc(C(=O)O)c3[C@@H]3C[C@H]3c3cn(C)nn3)c2)C1 [Example 20, 1-(3-(((S)-4-ethyl-1,1-dioxido-8-(trifluoromethyl)-4,5-dihydrobenzo[f][1,2]thiazepin-2(3H)-yl)methyl)phenyl)-5-((1R,2R)-2-(1-methyl-1H-1,2,3-triazol-4-yl)cyclopropyl)-1H-pyrazole-4-carboxylic acid] |
